Laboratory results reported in article PMC8130611 (ACS infectious diseases, 2021).
Entries after “also recorded” stand apart in the source; their conditions may differ.

What was measured:
[1] = target: SARS-CoV-2-S-RBD–hACE2 PPI (Severe acute respiratory syndrome coronavirus 2, UniProt P0DTC2); assay type: binding, human; conditions: for IC50: read-out: IC50, inhibition of SARS-CoV-2-RBD binding to hACE2
[2] = system: BacMam-based pseudovirus bearing the SARS-CoV-2 S protein; assay type: cell-based
[3] = system: SARS-CoV; conditions: cited from earlier work
[4] = system: THP-1 human cells; conditions: concentrations of up to 200 μM; ref [61], [62]; cited from earlier work
[5] = system: HEK293T cells
[6] = target: TNF-R1–TNF-α interaction (Homo sapiens, UniProt P01375+P19438); experiment: cell-free ELISA-type counter-assay, inhibition of TNF-R1–TNF-α interaction; assay type: binding
TNF-R1–TNF-α interaction, sequence (P19438 30-211): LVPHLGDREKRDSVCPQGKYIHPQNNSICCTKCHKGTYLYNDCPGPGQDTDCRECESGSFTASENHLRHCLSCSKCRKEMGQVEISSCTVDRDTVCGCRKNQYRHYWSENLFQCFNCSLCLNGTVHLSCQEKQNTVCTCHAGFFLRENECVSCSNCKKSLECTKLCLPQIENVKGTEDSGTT
TNF-R1–TNF-α interaction, sequence (P01375 85-233): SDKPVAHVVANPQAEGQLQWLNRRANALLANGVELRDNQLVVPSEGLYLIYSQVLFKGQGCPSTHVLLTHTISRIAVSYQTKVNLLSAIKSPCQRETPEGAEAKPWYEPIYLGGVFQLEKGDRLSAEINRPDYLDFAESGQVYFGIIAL

In the case of `Cc1ccc(C(=O)Nc2ccc(S(=O)(=O)O)c3cc(S(=O)(=O)O)cc(S(=O)(=O)O)c23)cc1NC(=O)c1cccc(NC(=O)Nc2cccc(C(=O)Nc3cc(C(=O)Nc4ccc(S(=O)(=O)O)c5cc(S(=O)(=O)O)cc(S(=O)(=O)O)c45)ccc3C)c2)c1` [suramin], the “inhibitory activity on SARS-CoV-2-RBD–hACE2 binding (in words)” value (from here on “inhibitory activity”) [1] is reported as “neither chloroquine nor suramin showed inhibitory activity; also recorded: no activity”.

In the case of `O=C([O-])c1c(Cl)c(Cl)c(Cl)c(Cl)c1-c1c2cc(I)c(=O)c(I)c-2oc2c(I)c([O-])c(I)cc12.[Na+].[Na+]` [rose Bengal], the “activity in screening for inhibitors of SARS-CoV-2 RBD binding” value (from here on “activity in screening for inhibitors”) [1] is reported as “strongest activity”.

For `CN(C)c1ccc2nc3ccc(=[N+](C)C)cc-3sc2c1` [methylene blue], the “activity in screening for inhibitors” value [1] was “promising inhibitory activity”.

In the case of `CCN(CCO)CCCC(C)Nc1ccnc2cc(Cl)ccc12` (stereo not shown) [hydroxychloroquine], the “inhibition of pseudovirus entry (BacMam), in words” value [2] is reported as “did not show any significant inhibition; also recorded: no effect”.

In the case of erythrosine B, the “activity in screening for inhibitors” value [1] is reported as “strongest activity” and the IC50 [1] is reported as 400 nM.

In the case of `CN1CCN(c2ccc(CNC(=O)c3ccno3)cc2)CC1` [SSAA09E2], the “activities of previously identified candidates” value [3] is listed as 3.1 µM.

In the case of `O=C(Nc1ccc(-c2ccc(C(=O)Nc3cccc4cccc(S(=O)(=O)O)c34)cc2)cc1)c1ccc([N+](=O)[O-])cc1` [DRI-C21041], the “effect on viability of THP-1 human cells” value [4] is listed as “did not have significant effects”.

For `OC(COc1cccc(OCC(O)CN2CCCCC2)c1)CN1CCCCC1` (stereo not shown) [VE607], the “activities of previously identified candidates” value [3] is listed as 1.6 µM.

`Nc1ccc(N=Nc2ccc(-c3ccc(N=Nc4c(S(=O)(=O)O)cc5cc(S(=O)(=O)O)c(N=Nc6ccccc6)c(O)c5c4N)cc3)cc2)c(N)c1` [chlorazol black] gave an IC50 [1] of 2570 nM.

For `O=C([O-])c1c(Cl)c(Cl)c(Cl)c(Cl)c1-c1c2cc(Br)c(=O)c(Br)c-2oc2c(Br)c([O-])c(Br)cc12.[Na+].[Na+]` [phloxine B], the “activity in screening for inhibitors” value [1] was “strongest activity”.

For `O=S(=O)([O-])c1ccc(N=Nc2c(O)ccc3cc(S(=O)(=O)[O-])ccc23)cc1.[Na+].[Na+]` [sunset yellow FCF], the “inhibitory activity” value [1] was “no inhibitory activity”.

In the case of `CCN(CC)CCCC(C)Nc1ccnc2cc(Cl)ccc12` (stereo not shown) [chloroquine], the “cytotoxicity (MTS)” value [5] is reported as “noticeable cytotoxicity”.

For `Nc1c(/N=N/c2ccc(-c3ccc(/N=N/c4cc(S(=O)(=O)O)c5ccccc5c4N)cc3)cc2)cc(S(=O)(=O)O)c2ccccc12` [Congo red], the IC50 [6] was 6 µM.

Compound `CCOc1ccc(N=Nc2ccc(-c3ccc(N=Nc4c(O)ccc5cc(S(=O)(=O)O)cc(S(=O)(=O)O)c45)c(C)c3)cc2C)cc1` [calcomine scarlet 3B] has an IC50 [1] of 4250 nM.

For `Nc1c(N=Nc2ccc([N+](=O)[O-])cc2)c(S(=O)(=O)[O-])cc2cc(S(=O)(=O)[O-])c(N=Nc3ccccc3)c(O)c12.[Na+].[Na+]` [naphthol blue black], the “inhibitory activity” value [1] was “no inhibitory activity”.
